Data as given in patent US7595313B2, “Nitric oxide donating diuretic compounds, compositions and methods of use” (NicOx, S.A., priority 2005, dated 2009).

Columns and labels:
[1] = test system: Male Wistar rats; assay: Determination of the diuresis (urine volume over 6 hours after oral dosing); format: in vivo, rat
Description: Procedures were approved by the Institutional Animal Care and Use Committee of NitroMed, Inc. Male Wistar rats (180-200 g) were purchased from Charles River Laboratories (Kingston, N.Y. or Raleigh, N.C.) and allowed to acclimate in the facility for a period of at least 72 h. Rats were randomly housed 2-3 per cage in a light-controlled room with a 12 hour light/dark cycle and allowed ad libitum access to food and water.
Prior to the experiment, each rat was placed in a metabolic cage and allowed to acclimate for a period of 24-48 hours with food and water ad libitum. During this acclimation period, rats received mash food instead of pellet food to prevent contamination of the urine samples. All rats were fasted for 18 hours prior to experimentation. In addition, water was removed 90 minutes prior to oral dosing with test compound or vehicle.
The test compounds were prepared immediately prior to dosing in 0.5% Methocel (F4M Premium Hydroxypropyl Methylcellulose, lot # PF12012N12; Dow Chemical Company, USA) and homogenized with a glass/Teflon pestle motorized homogenizer. Gently vortexed test compounds were administered intragastrically (p.o.; 30 mg/kg or 3 mg/kg) at a dose volume of 3 ml per rat using an 18 gauge gavage needle. Urine volume (ml) was monitored and urine was collected for subsequent electrolyte analysis over a 6 hours period. […] Data are expressed as mean ±SEM; n=6 or 7.

[2] = p.o. 3 mg/kg in 0.5% Methocel, male Wistar rats, 6 hours, mean ± SEM, n=6 or 7
[3] = p.o. 30 mg/kg in 0.5% Methocel, male Wistar rats, 6 hours, mean ± SEM, n=6 or 7

Compound	Urine collected in 6 hours (mL) (3 mg/kg) [1, 2]	melting point	Urine collected in 6 hours (mL) (3 mg/kg) ([1]; rat, in vivo, po)	Urine collected in 6 hours (mL) (30 mg/kg) [1, 3]	Urine collected in 6 hours (mL) (30 mg/kg) ([1]; rat, in vivo, po)
CN(CCO[N+](=O)[O-])C(=O)CN1CNc2cc(Cl)c(S(N)(=O)=O)cc2S1(=O)=O [Example 38, 2H-1,2,4-Benzothiadiazine-2-acetamide, 7-(aminosulfonyl)-6-chloro-3,4-dihydro-N-methyl-N-[2-(nitrooxy)ethyl]-, 1,1-dioxide]	4.5 ± 0.6	160 to 165 °C			
NS(=O)(=O)c1cc2c(cc1Cl)NC(c1cc(CO[N+](=O)[O-])cc(CO[N+](=O)[O-])c1)NS2(=O)=O (stereo not shown) [Example 50c, 2H-1,2,4-Benzothiadiazine-7-sulfonamide, 3-[3,5-bis[(nitrooxy)methyl]phenyl]-6-chloro-3,4-dihydro-, 1,1-dioxide]		121 to 124 °C	3.3 ± 0.6		
NS(=O)(=O)c1cc2c(cc1Cl)NC(CCC(=O)NCCOCCO[N+](=O)[O-])=NS2(=O)=O [Example 13, 4H-1,2,4-Benzothiadiazine-3-propanamide, 7-(aminosulfonyl)-6-chloro-N-[2-[2-(nitrooxy)ethoxy]ethyl]-, 1,1-dioxide]		175 to 178 °C		2.2 ± 0.5	
CC(CO[N+](=O)[O-])(CO[N+](=O)[O-])C(=O)N1CCC2(CC1)Nc1cc(Cl)c(S(N)(=O)=O)cc1S(=O)(=O)N2 [Example 23, Spiro[2H-1,2,4-benzothiadiazine-3(4H), 4′-piperidine]-7-sulfonamide, 6-chloro-1′-[2-methyl-3-(nitrooxy)-2-[(nitrooxy)methyl]-1-oxopropyl]-, 1,1-dioxide]		142 to 145 °C			1.7 ± 0.6
CC(C)(CO[N+](=O)[O-])C(=O)N1CCC2(CC1)Nc1cc(C(F)(F)F)c(S(N)(=O)=O)cc1S(=O)(=O)N2 [Example 19b, Spiro[2H-1,2,4-benzothiadiazine-3(4H), 4′-piperidine]-7-sulfonamide, 1′-[2,2-dimethyl-3-(nitrooxy)-1-oxopropyl]-6-(trifluoromethyl)-, 1,1-dioxide]		152 to 156 °C (dec.)		2.5 ± 0.4	
CN(CC1Nc2cc(Cl)c(S(N)(=O)=O)cc2S(=O)(=O)N1)C(=O)c1cc(CO[N+](=O)[O-])cc(CO[N+](=O)[O-])c1 (stereo not shown) [Example 65d, (5-{[{[7-(Aminosulfonyl)-6-chloro-1,1-dioxido-3,4-dihydro-2H-1,2,4-benzothiadiazin-3-yl]methyl}(methyl)amino]carbonyl}-1,3-phenylene)bis(methylene)dinitrate]		137 °C (dec.)	4.6 ± 0.3		
NS(=O)(=O)c1cc2c(cc1Cl)NC(CCCC(=O)NC[C@@H](CO[N+](=O)[O-])O[N+](=O)[O-])=NS2(=O)=O [Example 21b, 4H-1,2,4-Benzothiadiazine-3-butanamide, 7-(aminosulfonyl)-N-[(2S)-2,3-bis(nitrooxy)propyl]-6-chloro-, 1,1-dioxide]		140 °C (dec.)			2.7 ± 0.3
NS(=O)(=O)c1cc2c(cc1Cl)NCN(CCCO)S2(=O)=O [Example 59, 2H-1,2,4-Benzothiadiazine-7-sulfonamide, 6-chloro-3,4-dihydro-2-(3-hydroxypropyl)-, 1,1-dioxide]	6.7 ± 0.6	160 °C			
Cc1c(CN2CNc3cc(Cl)c(S(N)(=O)=O)cc3S2(=O)=O)no[n+]1[O-] [Example 37c, 2H-1,2,4-Benzothiadiazine-7-sulfonamide, 6-chloro-3,4-dihydro-2-[(4-methyl-5-oxido-1,2,5-oxadiazol-3-yl)methyl]-, 1,1-dioxide]	2.1 ± 0.6	235 to 237 °C			
NS(=O)(=O)c1cc2c(cc1Cl)NCN(CCOc1cc(CO[N+](=O)[O-])cc(CO[N+](=O)[O-])c1)S2(=O)=O [Example 71c, 2H-1,2,4-Benzothiadiazine-7-sulfonamide, 2-[2-[3,5-bis[(nitrooxy)methyl]phenoxy]ethyl]-6-chloro-3,4-dihydro-, 1,1-dioxide]		72 to 75 °C	1.3 ± 0.6		
NS(=O)(=O)c1cc2c(cc1Cl)NC(CCCC(=O)NC[C@H](CO[N+](=O)[O-])O[N+](=O)[O-])=NS2(=O)=O [Example 11, 4H-1,2,4-Benzothiadiazine-3-butanamide, 7-(aminosulfonyl)-N-[(2R)-2,3-bis(nitrooxy)propyl]-6-chloro-, 1,1-dioxide]		> 220 °C			3.7 ± 0.3
NS(=O)(=O)c1cc2c(cc1Cl)NCN(CC(=O)NCCCO[N+](=O)[O-])S2(=O)=O [Example 34, 2H-1,2,4-Benzothiadiazine-2-acetamide, 7-(aminosulfonyl)-6-chloro-3,4-dihydro-N-[3-(nitrooxy)propyl]-, 1,1-dioxide]	2.8 ± 0.3	138 to 141 °C			
NS(=O)(=O)c1cc2c(cc1Cl)NC(CC(=O)N(CCO[N+](=O)[O-])CCO[N+](=O)[O-])NS2(=O)=O (stereo not shown) [Example 49e, 2H-1,2,4-Benzothiadiazine-3-acetamide, 7-(aminosulfonyl)-6-chloro-3,4-dihydro-N,N-bis[2-(nitrooxy)ethyl]-, 1,1-dioxide]		94 to 97 °C	2.5 ± 0.5		
NS(=O)(=O)c1cc2c(cc1Cl)NCN(CCCCOc1cc(CO[N+](=O)[O-])cc(CO[N+](=O)[O-])c1)S2(=O)=O [Example 69b, 2H-1,2,4-Benzothiadiazine-7-sulfonamide, 2-[4-[3,5-bis[(nitrooxy)methyl]phenoxy]butyl]-6-chloro-3,4-dihydro-, 1,1-dioxide]		65 to 67 °C	2.5 ± 0.5		
CC(CO[N+](=O)[O-])(CO[N+](=O)[O-])C(=O)N1CCC2(CC1)Nc1cc(C(F)(F)F)c(S(N)(=O)=O)cc1S(=O)(=O)N2 [Example 16c, Spiro[2H-1,2,4-benzothiadiazine-3(4H), 4′-piperidine]-7-sulfonamide, 1′-[2-methyl-3-(nitrooxy)-2-[(nitrooxy)methyl]-1-oxopropyl]-6-(trifluoromethyl)-, 1,1-dioxide]		> 140 °C (dec.)			4.3 ± 0.3
NS(=O)(=O)c1cc2c(cc1Cl)NCN(CCCOc1cc(CO[N+](=O)[O-])cc(CO[N+](=O)[O-])c1)S2(=O)=O [Example 70c, 2H-1,2,4-Benzothiadiazine-7-sulfonamide, 2-[3-[3,5-bis[(nitrooxy)methyl]phenoxy]propyl]-6-chloro-3,4-dihydro-, 1,1-dioxide]		70 to 72 °C	3.3 ± 0.4		
NS(=O)(=O)c1cc2c(cc1C(F)(F)F)NC(c1cc(CO[N+](=O)[O-])cc(CO[N+](=O)[O-])c1)NS2(=O)=O (stereo not shown) [Example 55, 2H-1,2,4-Benzothiadiazine-7-sulfonamide, 3-[3,5-bis[(nitrooxy)methyl]phenyl]-3,4-dihydro-6-(trifluoromethyl)-, 1,1-dioxide]		> 113 °C (dec.)	3.3 ± 0.4		
NS(=O)(=O)c1cc2c(cc1C(F)(F)F)NC(CCCCCO[N+](=O)[O-])NS2(=O)=O (stereo not shown) [Example 2, 2H-1,2,4-Benzothiadiazine-7-sulfonamide, 3,4-dihydro-3-[5-(nitrooxy)pentyl]-6-(trifluoromethyl)-, 1,1-dioxide]		171 to 189 °C		5.7 ± 0.7	
NS(=O)(=O)c1cc2c(cc1Cl)NC(CCCC(=O)NCCO[N+](=O)[O-])=NS2(=O)=O [Example 14, 4H-1,2,4-Benzothiadiazine-3-butanamide, 7-(aminosulfonyl)-6-chloro-N-[2-(nitrooxy)ethyl]-, 1,1-dioxide]		168 to 170 °C		4.0 ± 0.4	
Cc1c(C2Nc3cc(Cl)c(S(N)(=O)=O)cc3S(=O)(=O)N2)no[n+]1[O-] (stereo not shown) [Example 9b, 2H-1,2,4-Benzothiadiazine-7-sulfonamide, 6-chloro-3,4-dihydro-3-(4-methyl-5-oxido-1,2,5-oxadiazol-3-yl)-, 1,1-dioxide]		242 to 243 °C (dec.)		6.7 ± 0.8	
NS(=O)(=O)c1cc2c(cc1Cl)NC(CCCCCCO[N+](=O)[O-])NS2(=O)=O (stereo not shown) [Example 47c, 2H-1,2,4-Benzothiadiazine-7-sulfonamide, 6-chloro-3,4-dihydro-3-[6-(nitrooxy)hexyl]-, 1,1-dioxide]	8.3 ± 0.6	161 °C			
NS(=O)(=O)c1cc2c(cc1Cl)N=C(NC(=O)CCCCO[N+](=O)[O-])NS2(=O)=O [Example 4c, Pentanamide, N-[7-(aminosulfonyl)-6-chloro-1,1-dioxido-2H-1,2,4-benzothiadiazin-3-yl]-5-(nitrooxy)-]		222 to 225 °C		3.8 ± 0.7	
NS(=O)(=O)c1cc2c(cc1Cl)NC(CCCCO)NS2(=O)=O (stereo not shown) [Example 26, 2H-1,2,4-Benzothiadiazine-7-sulfonamide, 6-chloro-3,4-dihydro-3-(4-hydroxybutyl)-, 1,1-dioxide]		202 to 211 °C		6.0 ± 0.4	
